{"source": "patent US6696480B2", "about": "“Upregulation of type III endothelial cell nitric oxide synthase by agents that disrupt actin cytoskeletal organization” (Brigham and Women's Hospital, Inc., priority 1998, dated 2004)", "key": {"ecNOS [1]": {"system": "ecNOS", "assay": "ecNOS activity from tissues, arginine to citrulline conversion in mouse aortae", "assay_type": "in vivo, SV-129 mice", "settings": "2 mg/kg, 14 days", "description": "The ecNOS activities in mice aortae and brains were measured by the conversion of [^3H]arginine to [^3H]citrulline in the presence and absence of LNMA (5 mM) as described earlier."}, "human endothelial cells": {"system": "human endothelial cells", "assay": "Cellular viability (cell count, morphology, Trypan blue exclusion)", "settings": "simvastatin 0.01 to 0.1 mmol/L, lovastatin 10 mmol/L, up to 96 h"}, "ecNOS mRNA [2]": {"system": "ecNOS mRNA", "assay": "ecNOS mRNA half-life in the presence of actinomycin D", "assay_type": "cell-based, human", "settings": "for half-life of ecNOS mRNA (t1/2) / ecNOS mRNA half-life: actinomycin D; for ecNOS mRNA half-life: simvastatin 1 mM"}, "ecNOS protein": {"system": "ecNOS protein", "settings": "for increase in ecNOS protein levels compared to ox-LDL alone: co-treatment with ox-LDL, simvastatin 0.1 mmol/L; for ecNOS protein levels, % of basal levels: hypoxia (3% O2)"}, "[3]": {"system": "cerebral ischemia, left middle cerebral artery (MCA) occlusion", "assay": "Murine model of cerebral vascular ischemia (MCA occlusion)", "assay_type": "in vivo, SV-129 mice", "excerpt": "Ischemia was produced by occluding the left middle cerebral artery (MCA) with a coated 8.0 nylon monofilament under anesthesia as described (Huang, Z et al., J Cereb Blood Flow Metab, 1996, 16:981-987, Huang, Z et al., Science, 1994, 265:1883-1885, Hara, H et al., J Cereb Blood Flow Metab, 1997, 1:515-526). Arterial blood pressure, heart rate, arterial oxygen pressure, and partial pressure of carbon dioxide were monitored as described (Huang, Z et al., J Cereb Blood Flow Metab, 1996, 16:981-987, Huang, Z et al., Science, 1994, 265:1883-1885, Hara, H et al., J Cereb Blood Flow Metab, 1997, 1:515-526). The filaments were withdrawn after 2 hours and after 24 h, mice were either sacrificed or tested for neurological deficits using a well-established, standardized, observer-blinded protocol as described (Huang, Z et al., J Cereb Blood Flow Metab, 1996, 16:981-987, Huang, Z et al., Science, 1994, 265:1883-1885, Hara, H et al., J Cereb Blood Flow Metab, 1997, 1:515-526). The motor deficit score range from 0 (no deficit) to 2 (complete deficit).\nBrains were divided into five coronal 2-mm sections using a mouse brain matrix (RBM-200C, Activated Systems, Ann Arbor, Mich., USA). Infarction volume was quantitated with an image analysis system (M4, St. Catharines, Ontario, Canada) on 2% 2,3,5-triphenyltetrazolium chloride stained 2-mm slices. The levels of serum cholesterol, creatinine and transaminases were determined by the Tufts University Veterinary Diagnostic Laboratory (Grafton, Mass.)."}, "ecNOS gene transcription": {"system": "ecNOS gene transcription", "assay": "Nuclear run-on assay of ecNOS gene transcription"}, "ecNOS mRNA [4]": {"system": "ecNOS mRNA", "assay": "Quantitative RT-PCR of ecNOS mRNA in mouse aortae and brains", "assay_type": "in vivo, SV-129 mice", "settings": "dose-dependent, 14 days", "excerpt": "Total RNA from mouse aortae and brains was isolated by the guanidinium isothiocyanate method and reverse transcribed using oligo-dT (mRNA Preamplification reagents; Gibco BRL) and Taq ploymerase (Perkin-Elmer). One tenth of the sDNA was used as template for the PCR reaction. […] [NT] ID NO. 1) and 3'Primer: […] For amplification of glyceraldehyde 3-phosphate dehydrogenase (GAPDH), 0.1 nmol of the following primers amplifying a 452-bp fragment were used: 5'Primer: [NT] ID NO. 3) and 3' Primer: […] NO. 4). Denaturing was performed at 94° C. for 30 s, annealing at 60° C. for 30 s, and elongation at 72° C. for 60 s."}, "ecNOS mRNA [5]": {"system": "ecNOS mRNA", "assay": "Northern blotting of ecNOS steady-state mRNA in endothelial cells", "assay_type": "cell-based, human", "set-up": "ecNOS mRNA levels increased to / ecNOS mRNA levels, % of basal levels / effect on basal ecNOS mRNA levels: unit of the concentration uncertain", "settings": "for increase in ecNOS mRNA levels compared to ox-LDL: co-treatment with ox-LDL, simvastatin 0.1 mmol/L; for ecNOS mRNA levels, % of basal levels: hypoxia + simvastatin (1 (unit uncertain))", "description": "Equal amounts of total RNA (10-20 mg) were separated by 1.2% formaldehyde-agarose gel electrophoresis and transferred overnight onto Hybond nylon membranes. […] All Northern blots were subjected to stringent washing conditions (0.2× SSC/0.1% SDS at 65° C.) prior to autoradiography. RNA loading was determined by rehybridization with human GAPDH probe."}, "ecNOS [6]": {"system": "ecNOS", "assay": "ecNOS activity, LNMA-inhibitable nitrite production (modified nitrite assay)", "assay_type": "cell-based, human"}, "[7]": {"settings": "ox-LDL + simvastatin 0.1 mmol/L"}, "[8]": {"settings": "wild-type mice, 2 mg/kg, 14 days"}, "[9]": {"settings": "simvastatin 1 mM alone (20% O2)"}}, "note": "“And” between values parts separate entries of the source, which are not always exact repeats. Equal entries are not always repeated. Where two headings read alike, the source gives them in different places.", "data": [{"smiles": "CCC(C)(C)C(=O)O[C@H]1C[C@@H](C)C=C2C=C[C@H](C)[C@H](CC[C@@H]3C[C@@H](O)CC(=O)O3)[C@H]21", "note": "[simvastatin]", "values": [{"measurement": "ecNOS activity in aortae", "setting": "ecNOS [1]", "value": "0.39±0.09", "unit": "U/mg protein"}, {"measurement": "noticeable adverse effects on human endothelial cell", "setting": "human endothelial cells", "value": "Neither simvastatin (0.01 to 0.1 mmol/L) nor lovastatin (10 mmol/L) produced any noticeable adverse effects"}, {"measurement": "prolongation of ecNOS mRNA half-life", "setting": "ecNOS mRNA [2]; ox-LDL + simvastatin 0.1 mmol/L, versus ox-LDL", "value": 1.6, "unit": "fold"}, {"measurement": "half-life of ecNOS mRNA (t1/2)", "setting": "ecNOS mRNA [2]; [7]", "value": "22 ± 3", "unit": "h"}, {"measurement": "ecNOS mRNA half-life", "setting": "ecNOS mRNA [2]; hypoxic", "value": "38 ± 4", "unit": "h"}, {"measurement": "ecNOS mRNA half-life", "setting": "ecNOS mRNA [2]; normoxic", "value": "46 ± 4", "unit": "h"}, {"measurement": "prolongation of ecNOS mRNA half-life over baseline", "setting": "ecNOS mRNA [2]; simvastatin alone", "value": 1.3, "unit": "fold"}, {"measurement": "half-life of ecNOS mRNA (t1/2)", "setting": "ecNOS mRNA [2]; simvastatin alone", "value": "43 ± 4", "unit": "h"}, {"measurement": "increase in ecNOS protein levels compared to ox-LDL alone", "setting": "ecNOS protein; 24 h", "value": 1.3, "unit": "fold"}, {"measurement": "increase in ecNOS protein levels compared to ox-LDL alone", "setting": "ecNOS protein; 72 h", "value": 3.3, "unit": "fold"}, {"measurement": "increase in ecNOS protein levels compared to ox-LDL alone", "setting": "ecNOS protein; 96 h", "value": 8.9, "unit": "fold"}, {"measurement": "ecNOS protein levels, % of basal levels", "setting": "ecNOS protein; 48 h, simvastatin 1 mM", "value": "159±13", "unit": "%"}, {"measurement": "ecNOS protein levels, % of basal levels", "setting": "ecNOS protein; 48 h, simvastatin 10 mM", "value": "223±21", "unit": "%"}, {"measurement": "effect on ecNOS expression", "setting": "ecNOS protein; not chemically-activated statin (10)", "value": "no effect"}, {"measurement": "decrease in ecNOS protein", "setting": "ecNOS protein; ox-LDL + simvastatin 0.01 mmol/L, 48 h", "value": "57%±8%"}, {"measurement": "decrease in ecNOS protein level", "setting": "ecNOS protein; ox-LDL + simvastatin 0.1 mmol/L, 24 h", "value": "15% (2%"}, {"measurement": "decrease in ecNOS protein", "setting": "ecNOS protein; ox-LDL + simvastatin 0.1 mmol/L, 48 h", "value": "4%±7%"}, {"measurement": "ecNOS protein levels increased above basal expression", "setting": "ecNOS protein; ox-LDL + simvastatin 0.1 mmol/L, 72 h", "value": "110% (6%"}, {"measurement": "ecNOS protein levels increased above basal expression", "setting": "ecNOS protein; ox-LDL + simvastatin 0.1 mmol/L, 96 h", "value": "124% (6%"}, {"measurement": "ecNOS protein levels above baseline", "setting": "ecNOS protein; ox-LDL + simvastatin 1 mmol/L, 48 h", "value": "146%±9% and 150% (8%"}, {"measurement": "upregulation of ecNOS expression", "setting": "ecNOS protein; simvastatin alone (1)", "value": 2.9, "unit": "fold"}, {"measurement": "increase in cerebral blood flow over basal values", "setting": "[3]; 2 mg/kg", "value": 23, "unit": "%"}, {"measurement": "improvement of neurological motor deficit score compared to controls", "setting": "[3]; 2 mg/kg, 14 days", "value": "~2", "unit": "fold"}, {"measurement": "neurological motor deficit score", "setting": "[3]; 2 mg/kg, 14 days, 2 h MCA occlusion, 22 hours of reperfusion, score 0 to 2", "value": "0.8±0.2"}, {"measurement": "increase in cerebral blood flow over basal values", "setting": "[3]; 20 mg/kg", "value": 35, "unit": "%"}, {"measurement": "persistence of the effect on cerebral infarct size", "setting": "[3]; mouse, in vivo", "value": "up to 3 days"}, {"measurement": "cerebral infarct size", "setting": "[3]; [8]", "value": "73.8±8.5", "unit": "mm3"}, {"measurement": "smaller cerebral infarct sizes compared to untreated animals", "setting": "[3]; [8]", "value": 25, "unit": "%"}, {"measurement": "decrease in ecNOS gene transcription", "setting": "ecNOS gene transcription; hypoxia + simvastatin 1 mM", "value": "83±6", "unit": "%"}, {"measurement": "increase in ecNOS gene transcription", "setting": "ecNOS gene transcription; simvastatin alone, normoxic condition", "value": "20±5", "unit": "%"}, {"measurement": "increase of ecNOS message compared to that of GAPDH in aortae", "setting": "ecNOS mRNA [4]", "value": 3, "unit": "fold"}, {"measurement": "increase in ecNOS mRNA levels compared to ox-LDL", "setting": "ecNOS mRNA [5]; 48 h", "value": 6.3, "unit": "fold"}, {"measurement": "increase in ecNOS mRNA levels compared to ox-LDL", "setting": "ecNOS mRNA [5]; 72 h", "value": 14.5, "unit": "fold"}, {"measurement": "ecNOS mRNA levels, % of basal levels", "setting": "ecNOS mRNA [5]; 24 h", "value": "195±12", "unit": "%"}, {"measurement": "ecNOS mRNA levels, % of basal levels", "setting": "ecNOS mRNA [5]; 48 h", "value": "530±30", "unit": "%"}, {"measurement": "ecNOS mRNA levels increased to", "setting": "ecNOS mRNA [5]; simvastatin (1 (unit uncertain)) alone, normoxia", "value": "340±24", "unit": "%"}, {"measurement": "decrease in ecNOS activity compared to untreated cells", "setting": "ecNOS [6]; [7]", "value": "28±3", "unit": "%"}, {"measurement": "ecNOS-dependent nitrite production", "setting": "ecNOS [6]; [7]", "value": "6.4±0.3 nmol/500,000 cells/24 h"}, {"measurement": "ecNOS-dependent nitrite production", "setting": "ecNOS [6]; ox-LDL + simvastatin 1 mmol/L", "value": "12.8±2.7 nmol/500,000 cells/24 h"}, {"measurement": "increase in ecNOS activity compared to baseline", "setting": "ecNOS [6]; ox-LDL + simvastatin 1 mmol/L", "value": "45±6", "unit": "%"}, {"measurement": "nitrite production", "setting": "ecNOS [6]; [9]", "value": "30±6.5 nmol/500,000 cells/24 h"}, {"measurement": "upregulation of nitrite production", "setting": "ecNOS [6]; [9]", "value": 5, "unit": "fold"}, {"measurement": "increase in ecNOS activity over basal activity", "setting": "ecNOS [6]; simvastatin 1 mM, 3% O2, 24 h", "value": 3, "unit": "fold"}, {"measurement": "nitrite production", "setting": "ecNOS [6]; simvastatin 1 mM, 3% O2, 24 h", "value": "18±5.0 nmol/500,000 cells/24 h"}]}]}
